US12202835B2, “Substituted aromatic ring-linked dioxinoquinazolines and dioxinoquinolines as kinase inhibitors” (BEIJING SCITECH-MQ PHARMACEUTICALS LIMITED, priority 2018, dated 2025)

How the values were obtained:
Assay type in all cases: biochemical
MER kinase = MER kinase (Homo sapiens (Human), UniProt Q12866); experiment: Assay of small molecular compounds for inhibiting the activity of MER kinase (LANCE TR-FRET)
Experimental: The assay of small molecular compounds for inhibiting the activity of MER kinase is based on the LANCE TR-FRET technology of Perkin Elmer Inc., and the assay method is as follows: • 1. Dilution of compounds: a total of 11 concentrations were obtained using a 3-fold gradient dilution from the highest concentration of 2500 nM (the maximum final concentration of the drug used in this assay was 2500 nM, and the minimum final concentration was 0.042 nM). • 2. 2.5 μL of the gradient-diluted compounds were taken with a transfer pipette to a 384-well plate. • 3. Addition of enzyme: 5 μL of 2×MER kinase solution (with a concentration of 1 nM) was taken with a transfer pipette to the corresponding reaction well of the 384-well plate, mixed well and pre-reacted at room temperature for 5 minutes. • 4. 2.5 μL 4× ULight-labeled Ploy GT (with a concentration of 200 nM)/ATP (with a concentration of 20 μM) mixture was taken with a transfer pipette to the corresponding reaction well of the 384-well plate. • 5. Negative control: 2.5 μL/well 4× substrate/ATP mixture and 7.5 μL 1× Kinase Assay Buffer were added to the wells of the 384-well plate.
(§1) Positive control: 2.5 μL/well 4× substrate/ATP mixture, 2.5 μL/well 1× Kinase Assay Buffer containing 4% DMSO, and 5 μL/well 2×MER kinase solution were added to the 384-well plate. The final concentration of DMSO in the reaction system was 1%. • 6. The mixture was mixed well and then centrifuged and reacted at room temperature in dark for 60 min. • 7. Termination of the enzymatic reaction: 5 μL of 4× stop solution was taken with a transfer pipette to the wells of the 384-well plate, mixed and then centrifuged, and reacted at room temperature for 5 min. • 8. Development of the reaction: 5 μL of 4× detection solution was taken with a transfer pipette to the wells of the 384-well plate for color development, and the mixture was mixed and then centrifuged and reacted at room temperature for 60 min. • 9. The 384-well plate was placed into the Envision plate reader and the signal was detected using the appropriate program. • 10. Analysis and processing of the raw data:
The drug concentrations and the corresponding inhibition rates were input into GraphPad Prism5 for calculation, and the inhibition rate of the compounds were calculated as follows: inhibition rate (%)=(reading of positive well−reading of experimental well)/(reading of positive control well−reading of negative control well)×100%. Processing with GraphPad Prism5 software yielded the corresponding IC50 values (the concentration of the compound at which 50% of the highest inhibition of the enzyme is achieved).

c-MET kinase = c-MET kinase (Homo sapiens (Human), UniProt P08581); experiment: Assay of small molecular compounds for inhibiting the activity of c-MET kinase (LANCE TR-FRET); conditions: read-out: CMET IC50
Sequence of c-MET kinase (P08581 25-1390): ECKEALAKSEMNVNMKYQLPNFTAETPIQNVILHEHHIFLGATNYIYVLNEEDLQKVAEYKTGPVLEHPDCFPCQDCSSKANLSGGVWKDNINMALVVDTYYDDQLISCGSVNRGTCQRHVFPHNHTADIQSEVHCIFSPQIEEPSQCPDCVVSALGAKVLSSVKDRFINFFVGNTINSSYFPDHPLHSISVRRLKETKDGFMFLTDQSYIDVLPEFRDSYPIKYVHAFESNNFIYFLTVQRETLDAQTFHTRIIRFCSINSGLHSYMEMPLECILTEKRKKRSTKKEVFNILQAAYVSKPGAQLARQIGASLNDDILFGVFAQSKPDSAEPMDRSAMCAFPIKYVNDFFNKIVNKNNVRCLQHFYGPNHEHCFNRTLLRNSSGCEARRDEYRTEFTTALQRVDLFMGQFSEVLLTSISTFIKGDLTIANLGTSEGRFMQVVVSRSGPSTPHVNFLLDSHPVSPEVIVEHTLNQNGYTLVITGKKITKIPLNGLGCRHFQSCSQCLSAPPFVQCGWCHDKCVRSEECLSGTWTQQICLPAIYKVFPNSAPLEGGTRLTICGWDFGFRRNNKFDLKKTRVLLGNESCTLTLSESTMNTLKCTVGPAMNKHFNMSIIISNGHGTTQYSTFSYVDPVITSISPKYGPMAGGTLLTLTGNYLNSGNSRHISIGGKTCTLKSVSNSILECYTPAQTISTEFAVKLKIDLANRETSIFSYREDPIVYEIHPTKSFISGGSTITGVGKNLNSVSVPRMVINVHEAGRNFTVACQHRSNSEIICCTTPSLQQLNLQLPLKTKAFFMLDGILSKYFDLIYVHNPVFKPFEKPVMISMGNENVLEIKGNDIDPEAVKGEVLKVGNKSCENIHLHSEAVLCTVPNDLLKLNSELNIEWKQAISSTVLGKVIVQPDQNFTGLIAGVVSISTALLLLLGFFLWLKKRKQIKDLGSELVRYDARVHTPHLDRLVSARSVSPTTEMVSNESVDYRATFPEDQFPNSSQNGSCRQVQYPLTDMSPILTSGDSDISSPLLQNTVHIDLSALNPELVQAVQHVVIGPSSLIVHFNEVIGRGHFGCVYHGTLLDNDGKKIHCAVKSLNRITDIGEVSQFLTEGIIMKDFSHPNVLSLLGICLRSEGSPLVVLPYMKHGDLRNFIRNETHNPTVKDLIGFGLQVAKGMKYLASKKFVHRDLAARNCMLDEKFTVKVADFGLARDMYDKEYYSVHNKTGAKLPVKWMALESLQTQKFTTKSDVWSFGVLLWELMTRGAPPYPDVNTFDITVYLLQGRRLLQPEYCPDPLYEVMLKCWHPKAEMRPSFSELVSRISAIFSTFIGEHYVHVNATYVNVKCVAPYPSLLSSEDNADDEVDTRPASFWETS
Experimental: The assay is based on the LANCE TR-FRET technology of Perkin Elmer Inc., and the assay method is as follows: • 1. Dilution of compounds: a total of 11 concentrations were obtained using a 3-fold gradient dilution from the highest concentration of 2500 nM (the maximum final concentration of the drug used in this assay was 2500 nM, and the minimum final concentration was 0.042 nM). • 2. 2.5 μL of the gradient-diluted compounds were taken with a transfer pipette to a 384-well plate. • 3. Addition of enzyme: 5 μL of 2×c-MET kinase solution (with a concentration of 2 nM) was taken with a transfer pipette to the corresponding reaction well of the 384-well plate, mixed well and pre-reacted at room temperature for 5 minutes. • 4. 2.5 μL 4× Ultra ULight™-JAK-1 (Tyr1023) Peptide (with a concentration of 400 nM)/ATP (with a concentration of 40 μM) mixture was taken with a transfer pipette to the corresponding reaction well of the 384-well plate. • 5. Negative control: 2.5 μL/well 4× substrate/ATP mixture and 7.5 μL 1× Kinase Assay Buffer were added to the wells of the 384-well plate. • 6. Positive control: 2.5 μL/well 4× substrate/ATP mixture, 2.5 μL/well 1× Kinase Assay Buffer containing 16% DMSO, and 5 μL/well 2× c-MET kinase solution were added to the 384-well plate. The final concentration of DMSO in the reaction system was 4%. • 7. The mixture was mixed well and then centrifuged and reacted at room temperature in dark for 60 min. • 8. Termination of the enzymatic reaction: 5 μL of 4× stop solution was taken with a transfer pipette to the wells of the 384-well plate, mixed and then centrifuged, and reacted at room temperature for 5 min. • 9. Development of the reaction: 5 μL of 4× detection solution was taken with a transfer pipette to the wells of the 384-well plate for color development, and the mixture was mixed and then centrifuged and reacted at room temperature for 60 min. • 10. The 384-well plate was placed into the Envision plate reader and the signal was detected using the appropriate program. • 11. Analysis and processing of the raw data: • 12. The drug concentrations and the corresponding inhibition rates were input into GraphPad Prism5 for calculation, and the inhibition rate of the compounds were calculated as follows: inhibition rate (%)=(reading of positive well−reading of experimental well)/(reading of positive control well−reading of negative control well)×100%. Processing with GraphPad Prism5 software yielded the corresponding IC50 values (the concentration of the compound at which 50% of the highest inhibition of the enzyme is achieved).

TRKA kinase = TRKA kinase (Homo sapiens (Human), UniProt P04629); experiment: Assay of small molecular compounds for inhibiting the activity of TRKA kinase (LANCE TR-FRET)
Sequence of TRKA kinase (P04629 33-796): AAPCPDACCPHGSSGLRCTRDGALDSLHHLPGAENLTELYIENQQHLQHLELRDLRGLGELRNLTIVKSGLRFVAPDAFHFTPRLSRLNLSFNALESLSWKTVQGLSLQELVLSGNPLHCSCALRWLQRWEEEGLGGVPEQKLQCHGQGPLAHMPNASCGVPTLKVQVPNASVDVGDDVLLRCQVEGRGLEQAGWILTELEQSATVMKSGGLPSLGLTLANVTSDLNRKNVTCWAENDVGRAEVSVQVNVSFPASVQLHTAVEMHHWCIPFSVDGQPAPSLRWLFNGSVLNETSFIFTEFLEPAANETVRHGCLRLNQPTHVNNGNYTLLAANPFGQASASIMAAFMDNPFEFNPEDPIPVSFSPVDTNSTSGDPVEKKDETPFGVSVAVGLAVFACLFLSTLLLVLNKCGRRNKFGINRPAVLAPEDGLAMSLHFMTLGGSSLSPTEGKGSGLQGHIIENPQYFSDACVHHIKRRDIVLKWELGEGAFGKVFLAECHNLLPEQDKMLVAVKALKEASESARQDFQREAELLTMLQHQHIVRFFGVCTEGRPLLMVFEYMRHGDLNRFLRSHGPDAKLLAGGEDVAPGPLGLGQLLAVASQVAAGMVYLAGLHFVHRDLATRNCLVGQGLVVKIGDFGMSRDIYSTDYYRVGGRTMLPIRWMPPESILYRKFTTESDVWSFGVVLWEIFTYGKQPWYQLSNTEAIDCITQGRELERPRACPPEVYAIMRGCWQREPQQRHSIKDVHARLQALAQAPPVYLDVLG
Experimental: The assay of small molecular compounds for inhibiting the activity of TRKA kinase is based on the LANCE TR-FRET technology of Perkin Elmer Inc., and the assay method is as follows: • 1. […] 2.5 μL of the gradient-diluted compounds were taken with a transfer pipette to a 384-well plate. • 3. Addition of enzyme: 5 μL of 2×TRKA kinase solution (with a concentration of 2 nM) was taken with a transfer pipette to the corresponding reaction well of the 384-well plate, mixed well and pre-reacted at room temperature for 5 minutes. • 4. 2.5 μL 4× Ultra ULight-labeled TK Peptide (with a concentration of 400 nM)/ATP (with a concentration of 40 μM) mixture was taken with a transfer pipette to the corresponding reaction well of the 384-well plate. • 5. Negative control: 2.5 μL/well 4× substrate/ATP mixture and 7.5 μL 1× Kinase Assay Buffer were added to the wells of the 384-well plate.
as §1, with “2×TRKA” for “2×MER”, “program.” for “program. • 10. Analysis and processing of the raw data:”

Sequence of MER kinase (Q12866 21-999): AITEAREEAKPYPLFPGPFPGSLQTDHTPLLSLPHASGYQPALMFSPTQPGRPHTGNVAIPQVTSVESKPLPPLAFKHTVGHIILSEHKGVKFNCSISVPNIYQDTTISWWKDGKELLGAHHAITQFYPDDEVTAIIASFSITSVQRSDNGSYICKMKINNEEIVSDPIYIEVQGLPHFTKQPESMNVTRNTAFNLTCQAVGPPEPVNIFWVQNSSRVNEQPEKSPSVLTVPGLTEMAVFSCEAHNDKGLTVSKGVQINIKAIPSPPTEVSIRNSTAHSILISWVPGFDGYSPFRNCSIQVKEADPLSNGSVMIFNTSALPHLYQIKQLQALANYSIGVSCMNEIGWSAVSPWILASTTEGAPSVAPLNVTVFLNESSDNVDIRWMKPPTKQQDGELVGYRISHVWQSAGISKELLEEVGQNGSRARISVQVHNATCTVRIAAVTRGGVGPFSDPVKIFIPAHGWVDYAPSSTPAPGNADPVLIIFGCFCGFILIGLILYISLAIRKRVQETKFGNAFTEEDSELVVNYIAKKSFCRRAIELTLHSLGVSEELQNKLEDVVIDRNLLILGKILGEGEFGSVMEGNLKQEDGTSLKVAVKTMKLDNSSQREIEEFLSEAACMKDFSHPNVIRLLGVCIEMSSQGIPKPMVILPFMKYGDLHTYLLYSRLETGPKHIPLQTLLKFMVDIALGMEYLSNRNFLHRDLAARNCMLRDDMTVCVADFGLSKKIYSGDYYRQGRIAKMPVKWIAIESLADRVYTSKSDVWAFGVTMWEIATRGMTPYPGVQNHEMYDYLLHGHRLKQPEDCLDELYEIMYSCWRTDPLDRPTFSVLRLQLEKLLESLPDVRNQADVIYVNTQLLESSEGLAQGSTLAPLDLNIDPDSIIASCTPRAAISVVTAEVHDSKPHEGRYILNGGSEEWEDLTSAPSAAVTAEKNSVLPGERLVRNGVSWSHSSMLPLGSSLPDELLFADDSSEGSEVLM

SMILES	IC50 (MER kinase) [nM]	IC50 (c-MET kinase) [nM]	IC50 (TRKA kinase) [nM]
COc1cc2ncnc(Oc3ccc(NC(=O)c4ccn(-c5ccc(F)cc5C)n4)cc3F)c2c2c1OCCO2 [Example 7, 1-(4-fluoro-2-methylphenyl)-N-(3-fluoro-4-((5-methoxy-2,3-dihydro-[1,4]dioxino[2,3-f]quinazolin-10-yl)oxy)phenyl)-1H-pyrazole-3-carboxamide]	500 to 5000	50 to 500	
CCOc1cn(-c2ccc(F)cc2C)nc1C(=O)Nc1ccc(Oc2ncnc3cc(OC)c4c(c23)OCCO4)c(F)c1 [Example 9, 1-(4-fluoro-2-methylphenyl)-N-(3-fluoro-4-((5-methoxy-2,3-dihydro-[1,4]dioxino[2,3-f]quinazolin-10-yl)oxy)phenyl)-4-ethoxy-1H-pyrazole-3-carboxamide]	500 to 5000	50 to 500	
Cn1cc(C(=O)Nc2ccc(Oc3ccnc4ccc5c(c34)OCCO5)c(F)c2)c(=O)n(-c2ccc(F)cc2)c1=O [Example 160, N-(4-((2,3-dihydro-[1,4]dioxino[2,3-f]quinolin-10-yl)oxy)-3-fluorophenyl)-3-(4-fluorophenyl)-1-methyl-2,4-dioxo-1,2,3,4-tetrahydropyrimidine-5-carboxamide]			50 to 500
COc1ccn(-c2ccc(F)cc2)c(=O)c1C(=O)Nc1ccc(Oc2ccnc3ccc4c(c23)OCCO4)c(F)c1 [Example 167, N-(4-((2,3-dihydro-[1,4]dioxino[2,3-f]quinolin-10-yl)oxy)-3-fluorophenyl)-1-(4-fluorophenyl)-4-methoxy-2-oxo-1,2-dihydropyridine-3-carboxamide]		≤ 50	50 to 500
CCOc1ccn(-c2ccc(F)cc2)c(=O)c1C(=O)Nc1ccc(Oc2ccnc3ccc4c(c23)OCCO4)c(F)c1 [Example 168, N-(4-((2,3-dihydro-[1,4]dioxino[2,3-f]quinolin-10-yl)oxy)-3-fluorophenyl)-1-(4-fluorophenyl)-4-ethoxy-2-oxo-1,2-dihydropyridine-3-carboxamide]			50 to 500
COc1cc2nccc(Oc3ccc(NC(=O)c4cn(C(C)C)c(=O)n(C5CCCCC5)c4=O)cc3F)c2c2c1OCCO2 [Example 157, N-(3-fluoro-4-((5-methoxy-2,3-dihydro-[1,4]dioxino[2,3-f]quinolin-10-yl)oxy)phenyl)-3-cyclohexyl-1-isopropyl-2,4-dioxo-1,2,3,4-tetrahydropyrimidine-5-carboxamide]	50 to 500		500 to 5000
COc1ccn(-c2ccc(F)cc2)c(=O)c1C(=O)Nc1ccc(Oc2ccnc3ccc4c(c23)OCCO4)cc1 [Example 166, N-(4-((2,3-dihydro-[1,4]dioxino[2,3-f]quinolin-10-yl)oxy)phenyl)-4-methoxy-1-(4-fluorophenyl)-2-oxo-1,2-dihydropyridine-3-carboxamide]		50 to 500	50 to 500

The remaining lines, values ahead:

IC50 (MER kinase) [nM]	IC50 (c-MET kinase) [nM]	IC50 (TRKA kinase) [nM]	SMILES
		50 to 500	CCn1cc(C(=O)Nc2cc(F)c(Oc3ccnc4ccc5c(c34)OCCO5)cc2C)c(=O)n(-c2ccc(F)cc2)c1=O [Example 176, N-(4-((2,3-dihydro-[1,4]dioxino[2,3-f]quinolin-10-yl)oxy)-5-fluoro-2-methylphenyl)-3-(4-fluorophenyl)-1-ethyl-2,4-dioxo-1,2,3,4-tetrahydropyrimidine-5-carboxamide]
		50 to 500	Cn1cc(C(=O)Nc2cc(F)c(Oc3ccnc4ccc5c(c34)OCCO5)cc2Cl)c(=O)n(-c2ccc(F)cc2)c1=O [Example 173, N-(2-chloro-4-((2,3-dihydro-[1,4]dioxino[2,3-f]quinolin-10-yl)oxy)-5-fluorophenyl)-3-(4-fluorophenyl)-1-methyl-2,4-dioxo-1,2,3,4-tetrahydropyrimidine-5-carboxamide]
	≤ 50	50 to 500	O=C(Nc1ccc(Oc2ccnc3ccc4c(c23)OCCO4)cc1)c1cccn(-c2ccc(F)cc2)c1=O [Example 165, N-(4-((2,3-dihydro-[1,4]dioxino[2,3-f]quinolin-10-yl)oxy)phenyl)-1-(4-fluorophenyl)-2-oxo-1,2-dihydropyridine-3-carboxamide]
		50 to 500	CCn1cc(C(=O)Nc2ccc(Oc3ccnc4ccc5c(c34)OCCO5)cc2F)c(=O)n(-c2ccc(F)cc2)c1=O [Example 163, N-(4-((2,3-dihydro-[1,4]dioxino[2,3-f]quinolin-10-yl)oxy)-2-fluorophenyl)-3-(4-fluorophenyl)-1-ethyl-2,4-dioxo-1,2,3,4-tetrahydropyrimidine-5-carboxamide]
		50 to 500	CCn1cc(C(=O)Nc2ccc(Oc3ccnc4ccc5c(c34)OCCO5)c(F)c2)c(=O)n(-c2ccc(F)cc2)c1=O [Example 161, N-(4-((2,3-dihydro-[1,4]dioxino[2,3-f]quinolin-10-yl)oxy)-3-fluorophenyl)-3-(4-fluorophenyl)-1-ethyl-2,4-dioxo-1,2,3,4-tetrahydropyrimidine-5-carboxamide]
		< 50	CCn1cc(C(=O)Nc2cc(F)c(Oc3ccnc4ccc5c(c34)OCCO5)cc2Cl)c(=O)n(-c2ccc(F)cc2)c1=O [Example 174, N-(2-chloro-4-((2,3-dihydro-[1,4]dioxino[2,3-f]quinolin-10-yl)oxy)-5-fluorophenyl)-3-(4-fluorophenyl)-1-ethyl-2,4-dioxo-1,2,3,4-tetrahydropyrimidine-5-carboxamide]
	≤ 50	50 to 500	CCOc1ccn(-c2ccc(F)cc2)c(=O)c1C(=O)Nc1ccc(Oc2ccnc3ccc4c(c23)OCCO4)cc1 [Example 164, N-(4-((2,3-dihydro-[1,4]dioxino[2,3-f]quinolin-10-yl)oxy)phenyl)-4-ethoxy-1-(4-fluorophenyl)-2-oxo-1,2-dihydropyridine-3-carboxamide]
